A short description of data set [1]: In Vitro Dissolution of norethindrone (NET) microparticles. The data set is classed as physicochemical. The note with it: ethyl acetate alone as solvent; b93: extreme ethyl acetate contents in quench; quench volume varied.
Data set [2] is described as follows: Solubility of risperidone in receiving medium for in vitro dissolution. As to conditions: 50 mm tris buffer, pH 7.4, aqueous buffer.
Source text: Real time and accelerated methodologies were used. The equipment consisted of a Hanson research 6-cell USP paddle (Method II) dissolution apparatus interfaced with a spectrophotometer and data station. Receiving media were continuously recirculated from each cell to flow cells inside the spectrophotometer. The absorbance of the receiving media was monitored at 236 nm for quantification of risperidone.
The real time model measured the release rates of microparticles into a receiving medium consisting of 50 mM tris buffer at pH 7.4 at 37° C. […] The amount of risperidone was kept below 20% of saturation to provide infinite sink conditions.

As usually defined, the solubility is how much of the substance goes into solution per volume.

“Also recorded” adds a separate entry of the source.

In the case of `C#C[C@]1(O)CC[C@H]2[C@@H]3CCC4=CC(=O)CC[C@@H]4[C@H]3CC[C@@]21C` [NET, norethindrone], in data set [1], the “in vitro release rate from microparticles” value is reported as “Higher than normal release rates; also recorded: quicker release; also recorded: varies slightly”.

As for `Cc1nc2n(c(=O)c1CCN1CCC(c3noc4cc(F)ccc34)CC1)CCCC2` [Risperidone, risperidone], the solubility in data set [2] was no less than 500 µg/mL.

These data come from US5650173A, “Preparation of biodegradable microparticles containing a biologically active agent” (Alkermes Controlled Therapeutics Inc. II, priority 1996, dated 1997).
